Data on 4 cell lines can be found in the supplement of paper PMC10307832.

What all share (test): relative viability (nuclei count vs DMSO), 5 days (fraction); higher = more cells survive
Compound in the assay “Decitabine + Tozasertib”: Nc1ncn([C@H]2C[C@H](O)[C@@H](CO)O2)c(=O)n1 [Decitabine] + Cc1cc(Nc2cc(N3CCN(C)CC3)nc(Sc3ccc(NC(=O)C4CC4)cc3)n2)n[nH]1 [Tozasertib] (partner 0.1 µM)
An outline of the steps:
(§1)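 After 5 days of treatment, lung cancer cells in 1536-well plates were fixed and stained in a single step (final 0.05% Triton X-100, 1% formaldehyde, 1 ug/ml Hoechst) and their nuclei counted on 4× images. Treatment had been applied by pin tool the day after seeding as one drug alone or as a fixed anchor-drug dose with five library-drug doses (not always all listed) in √10 steps. Relative viability is the nuclei count of treated wells divided by that of vehicle wells, and values are medians of duplicate plates.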

Compound in the assay “Halofuginone + OSI-027”: O=C(C[C@H]1NCCC[C@@H]1O)Cn1cnc2cc(Br)c(Cl)cc2c1=O (racemic) [Halofuginone] + COc1cccc2cc(-c3nc([C@H]4CC[C@H](C(=O)O)CC4)n4ncnc(N)c34)[nH]c12 [OSI-027] (partner 0.5 µM)
An outline of the steps:
as §1

Compound in assay [1]: O=C(C[C@H]1NCCC[C@@H]1O)Cn1cnc2cc(Br)c(Cl)cc2c1=O (racemic) [Halofuginone] + CS(=O)(=O)N1CCN(Cc2cc3nc(-c4cccc5[nH]ncc45)nc(N4CCOCC4)c3s2)CC1 [Pictilisib] (partner 1 µM)
Put shortly:
as §1

Compound in assay [2]: O=C(C[C@H]1NCCC[C@@H]1O)Cn1cnc2cc(Br)c(Cl)cc2c1=O (racemic) [Halofuginone] + O=C(CCCCCCC(=O)Nc1ccccc1)NO [Vorinostat] (partner 1 µM)
An outline of the steps: as §1

For the cell line NCI-H460, the relative viability with Decitabine + Tozasertib (first compound 0.04 µM) amounted to 0.325; with Decitabine + Tozasertib (first compound 0.1265 µM), 0.24; with Decitabine + Tozasertib (first compound 0.4 µM) it was 0.27; in the assay with Decitabine + Tozasertib (first compound 1.265 µM), 0.0551; with Decitabine + Tozasertib (first compound 4 µM), 0.0621; in the assay with Halofuginone + OSI-027 (first compound 0.001 µM) it was 0.715. For the same cell line, the relative viability in the assay with Halofuginone + OSI-027 (first compound 0.003162 µM) is 0.728; with Halofuginone + OSI-027 (first compound 0.01 µM), 0.614; with Halofuginone + OSI-027 (first compound 0.03162 µM), 0.557; with Halofuginone + OSI-027 (first compound 0.1 µM), 0.131; in assay [1] (first compound 0.001 µM) it was 0.393; in assay [1] (first compound 0.003162 µM) it was 0.345. The relative viability stood at 0.336 in assay [1] (first compound 0.01 µM); 0.345 in assay [1] (first compound 0.03162 µM); 0.299 in assay [1] (first compound 0.1 µM); 0.675 in assay [2] (first compound 0.001 µM); 0.756 in assay [2] (first compound 0.003162 µM); 0.744 in assay [2] (first compound 0.01 µM). Also, the relative viability in assay [2] (first compound 0.03162 µM) was found to be 0.495; in assay [2] (first compound 0.1 µM), 0.176.
In the case of NCI-H520, the relative viability with Decitabine + Tozasertib (first compound 0.04 µM) was determined as 0.402; in the assay with Decitabine + Tozasertib (first compound 0.1265 µM), 0.444; in the assay with Decitabine + Tozasertib (first compound 0.4 µM) it was 0.386; in the assay with Decitabine + Tozasertib (first compound 1.265 µM), 0.352; with Decitabine + Tozasertib (first compound 4 µM) it was 0.308; in the assay with Halofuginone + OSI-027 (first compound 0.001 µM), 0.311. Besides, the relative viability amounted to 0.3 with Halofuginone + OSI-027 (first compound 0.003162 µM); 0.258 with Halofuginone + OSI-027 (first compound 0.01 µM); 0.321 with Halofuginone + OSI-027 (first compound 0.03162 µM); 0.199 in the assay with Halofuginone + OSI-027 (first compound 0.1 µM); 0.301 in assay [1] (first compound 0.001 µM); 0.295 in assay [1] (first compound 0.003162 µM). For the same cell line, the relative viability in assay [1] (first compound 0.01 µM) came to 0.281; in assay [1] (first compound 0.03162 µM), 0.243; in assay [1] (first compound 0.1 µM) it was 0.181; in assay [2] (first compound 0.001 µM), 0.644; in assay [2] (first compound 0.003162 µM) it was 0.711; in assay [2] (first compound 0.01 µM), 0.551. The relative viability was 0.612 in assay [2] (first compound 0.03162 µM) and 0.309 in assay [2] (first compound 0.1 µM).
Regarding NCI-H596, the relative viability with Decitabine + Tozasertib (first compound 0.04 µM) worked out at 0.733; with Decitabine + Tozasertib (first compound 0.1265 µM) it was 0.87; with Decitabine + Tozasertib (first compound 1.265 µM), 0.526; with Decitabine + Tozasertib (first compound 4 µM) it was 0.466; in the assay with Halofuginone + OSI-027 (first compound 0.001 µM), 0.923; in the assay with Halofuginone + OSI-027 (first compound 0.003162 µM), 0.938. For the same cell line, the relative viability was determined as 0.845 with Halofuginone + OSI-027 (first compound 0.01 µM); 0.67 with Halofuginone + OSI-027 (first compound 0.03162 µM); 0.354 with Halofuginone + OSI-027 (first compound 0.1 µM); 0.423 in assay [1] (first compound 0.001 µM); 0.431 in assay [1] (first compound 0.003162 µM); 0.388 in assay [1] (first compound 0.01 µM). The relative viability amounted to 0.423 in assay [1] (first compound 0.03162 µM); 0.3 in assay [1] (first compound 0.1 µM); 0.628 in assay [2] (first compound 0.001 µM); 0.502 in assay [2] (first compound 0.003162 µM); 0.58 in assay [2] (first compound 0.01 µM); 0.648 in assay [2] (first compound 0.03162 µM). In addition, the relative viability in assay [2] (first compound 0.1 µM) was found to be 0.562.
Take NCI-H647: the relative viability with Decitabine + Tozasertib (first compound 0.04 µM) came out at 0.262; with Decitabine + Tozasertib (first compound 0.1265 µM), 0.192; in the assay with Decitabine + Tozasertib (first compound 0.4 µM), 0.172; in the assay with Decitabine + Tozasertib (first compound 1.265 µM), 0.0834; with Decitabine + Tozasertib (first compound 4 µM), 0.105; with Halofuginone + OSI-027 (first compound 0.001 µM), 0.654. For the same cell line, the relative viability with Halofuginone + OSI-027 (first compound 0.003162 µM) was found to be 0.623; with Halofuginone + OSI-027 (first compound 0.01 µM), 0.618; with Halofuginone + OSI-027 (first compound 0.03162 µM) it was 0.715; with Halofuginone + OSI-027 (first compound 0.1 µM) it was 0.334; in assay [1] (first compound 0.001 µM), 0.543; in assay [1] (first compound 0.003162 µM), 0.425. Moreover, the relative viability worked out at 0.459 in assay [1] (first compound 0.01 µM); 0.418 in assay [1] (first compound 0.03162 µM); 0.33 in assay [1] (first compound 0.1 µM); 0.833 in assay [2] (first compound 0.001 µM); 0.499 in assay [2] (first compound 0.003162 µM); 0.489 in assay [2] (first compound 0.01 µM). Also, the figures for the relative viability in assay [2] (first compound 0.03162 µM) and in assay [2] (first compound 0.1 µM) were 0.453 and 0.103, respectively.
